Test results: the NIST ThermoML archive (doi:10.1021/je500498m)
Numbers after ± are expanded uncertainties.

Assay: xn = mol fraction of the nth substance listed
Conditions: for speed of sound: 100 kPa, Sing-around technique in a fixed-path interferometer; for speed of sound / viscosity / mass density: Liquid; for viscosity / mass density: 101 kPa; for viscosity: Falling or rolling sphere viscometry; for mass density: Vibrating tube method; for surface tension liquid-gas: 294.4 K, Pendant drop shape

CCCCCCCCCCCCCCCC [hexadecane] + Cc1ccccc1
Conditions	mass density [kg/m3]	speed of sound [m/s]	viscosity [mPa·s]
293.15 K, x2 = 0	773.49 ± 0.33	1357.3 ± 0.9	3.44 ± 0.03
293.15 K, x2 = 0.1002	776.71 ± 0.33	1352.9 ± 0.9	3.03 ± 0.03
293.15 K, x2 = 0.2	780.38 ± 0.33	1348.1 ± 0.9	2.64 ± 0.02
293.15 K, x2 = 0.3018	784.83 ± 0.33	1343.1 ± 0.9	2.28 ± 0.02
293.15 K, x2 = 0.4001	789.87 ± 0.33	1337.2 ± 0.8	1.96 ± 0.02
293.15 K, x2 = 0.5	796.1 ± 0.33	1332 ± 0.8	1.66 ± 0.02
293.15 K, x2 = 0.6001	803.76 ± 0.32	1326.5 ± 0.8	1.4 ± 0.02
293.15 K, x2 = 0.7005	813.44 ± 0.32	1321.5 ± 0.8	1.16 ± 0.01
293.15 K, x2 = 0.8001	825.95 ± 0.32	1318 ± 0.8	0.94 ± 0.01
293.15 K, x2 = 0.8999	842.77 ± 0.32	1318 ± 0.8	0.76 ± 0.01
303.15 K, x2 = 0	766.55 ± 0.34	1320 ± 0.9	2.72 ± 0.02
303.15 K, x2 = 0.1002	769.7 ± 0.33	1315.5 ± 0.9	2.42 ± 0.02
303.15 K, x2 = 0.2	773.29 ± 0.33	1310.6 ± 0.9	2.14 ± 0.02
303.15 K, x2 = 0.3018	777.64 ± 0.33	1305.5 ± 0.8	1.87 ± 0.02
303.15 K, x2 = 0.4001	782.56 ± 0.33	1299.4 ± 0.8	1.63 ± 0.02
303.15 K, x2 = 0.5	788.63 ± 0.33	1293.9 ± 0.8	1.4 ± 0.02
303.15 K, x2 = 0.6001	796.11 ± 0.33	1288 ± 0.8	1.19 ± 0.01
303.15 K, x2 = 0.7005	805.54 ± 0.32	1282.4 ± 0.8	1 ± 0.01
303.15 K, x2 = 0.8001	817.73 ± 0.32	1278.2 ± 0.8	0.82 ± 0.01
303.15 K, x2 = 0.8999	834.11 ± 0.32	1277 ± 0.7	0.67 ± 0.01
313.15 K, x2 = 0	759.63 ± 0.34	1283.3 ± 0.9	–
313.15 K, x2 = 0.1002	762.7 ± 0.33	1278.7 ± 0.9	–
313.15 K, x2 = 0.2	766.2 ± 0.33	1273.6 ± 0.9	–
313.15 K, x2 = 0.3018	770.44 ± 0.33	1268.4 ± 0.8	–
313.15 K, x2 = 0.4001	775.24 ± 0.33	1262.1 ± 0.8	–
313.15 K, x2 = 0.5	781.15 ± 0.33	1256.2 ± 0.8	–
313.15 K, x2 = 0.6001	788.42 ± 0.33	1250 ± 0.8	–
313.15 K, x2 = 0.7005	797.59 ± 0.32	1243.8 ± 0.8	–
313.15 K, x2 = 0.8001	809.46 ± 0.32	1238.8 ± 0.8	–
313.15 K, x2 = 0.8999	825.38 ± 0.32	1236.4 ± 0.7	–
323.15 K, x2 = 0	752.71 ± 0.34	1247.3 ± 0.9	1.82 ± 0.02
323.15 K, x2 = 0.1002	755.7 ± 0.34	1242.6 ± 0.9	1.65 ± 0.02
323.15 K, x2 = 0.2	759.11 ± 0.33	1237.4 ± 0.9	1.49 ± 0.02
323.15 K, x2 = 0.3018	763.23 ± 0.33	1231.9 ± 0.8	1.33 ± 0.02
323.15 K, x2 = 0.4001	–	1225.4 ± 0.8	1.18 ± 0.01
323.15 K, x2 = 0.5	–	1219.2 ± 0.8	1.04 ± 0.01
323.15 K, x2 = 0.6001	–	1212.5 ± 0.8	0.9 ± 0.01
323.15 K, x2 = 0.7005	–	1205.7 ± 0.8	0.77 ± 0.01
323.15 K, x2 = 0.8001	–	1199.9 ± 0.7	0.64 ± 0.01
323.15 K, x2 = 0.8999	–	1196.3 ± 0.7	0.52 ± 0.01

Conditions	surface tension liquid-gas [mN/m]
x2 = 0	27.3 ± 0.4
x2 = 0.4001	27.3 ± 0.4
x2 = 0.5	27.5 ± 0.4
x2 = 0.6001	27.6 ± 0.4
x2 = 0.7006	27.7 ± 0.4
x2 = 0.8001	27.8 ± 0.4
x2 = 0.8999	28 ± 0.4
